Experiment [1] concerns uterus and vagina of immature Sprague-Dawley rats. As to the kind of experiment: Immature uterotrophic assay. Type of experiment: in vivo. Particulars: BPA 40 mg/ml/100 g s.c. 3 days, compared to non-treated control group. The method, then:
40 immature Sprague-Dawley rats, aged 18 days, were kept in a breeding environment of a temperature of 22±3° C., a relative humidity of 50±10%, a ventilation frequency of 10 to 12 times/hr, light time of 12 hours, an illumination intensity of 150 to 200 lux while being supplied with AIN-76A diet (per 1 kg, thiamine HCI 0.6 g, riboflavin 0.6 g, pyridoxine HCI 0.7 g, […] 3.0 g, calcium pantothenate 1.6 g, folic acid 0.2 g, biotin 0.02 g, Vitamin B12 (0.1%) 1.0 g, Vitamin A palmitate (500,000 IU/g) 0.8 g, Vitamin D3 (400,000 IU/g) 0.25 g, Vitamin E acetate (500 IU/g) 10.0 g, menadion sodium bisulfite 0.08 g, fine powdery sucrose 981.15 g). Each rat was subcutaneously administered once daily with bisphenol A (40 mg/ml/100 g body weight) and the Chinese licorice root EtOH extract (10 mg or 50 mg/ml/100 g body weight) suspended in corn oil for 3 days. 24 hours after the last administration day, the animals were killed by cervical dislocation. […] In particular, the height of the luminal epithelium of the uterus lumen was measured and the luminal epithelium of the vagina was carefully observed. For statistical analysis of data with respect to body weight of test animals and the like which had been measured in the experiment, one-way ANOVA was performed to inspect significance between groups at p=0.05 level. […]

Experiment [2] relates to MCF-7 breast cancer cells. The experiment is described as follows: Inhibitory effect on MCF-7 cell line proliferation (DNA content, OD 260 nm). Type of experiment: cell-based. Particulars: for inhibition of proliferation of MCF-7 breast cancer cell line: 100 μg/ml; for inhibition of proliferation of cancer cells including breast cancer cells: summary statement, no concentration given. As to the method:
(§1) 5×10^4 cells/ml of MCF-7 cells (ATCC HTB-22) were placed in a 6-well culture plate and allowed to be attached for 24 hours. Phenol red-free D-medium supplemented with 5% fetal bovine serum (FBS) and 3 Ml/l PSN antibiotic mixture (Gibco, USA) was added thereto, followed by incubation in an incubator kept at 5% CO2, 95% air, 100% humidity, 37° C. for 24 hours. After incubation for 24 hours, the medium was removed and the cultured cells were incubated in phenol red-free D-medium supplemented with 5% DCC-FBS (dextran-coated charcoal-stripped FBS; […] During the incubation, the test media were changed once. After 72 hours, the cells were treated with 1 Ml of 0.1 N NaOH (Sigma Co.) and collected to examine DNA content with a spectrophotometer at OD 260 nm.

Experiment [3] deals with bisphenol-A (BPA) activity in MCF-7 cells. As to the kind of experiment: Inhibitory effect on bisphenol-A (BPA) activity in MCF-7 cells. Type of experiment: cell-based. The following applies: summary statement, no concentration given. The method, then: as §1, with “nm. Additionally, in order to examine if the Chinese licorice root extract can suppress activity of bisphenol-A (BPA), which is an endocrine disruptor having tumor-inducing activity, in the foregoing experiment, BPA was used instead of the Chinese licorice root extract or the Chinese licorice root extract and BPA were used simultaneously. […]” for “nm.”

Experiment [4] deals with T1, human estrogen receptor (hER) (Homo sapiens, UniProt P03372).
T1 construct: expressed in transfected cells; host or cells: Saccharomyces cerevisiae ER+LYS 8127 (from Dr. Donald P. McDonnell, Duke University)
T1 sequence (P03372 1-595): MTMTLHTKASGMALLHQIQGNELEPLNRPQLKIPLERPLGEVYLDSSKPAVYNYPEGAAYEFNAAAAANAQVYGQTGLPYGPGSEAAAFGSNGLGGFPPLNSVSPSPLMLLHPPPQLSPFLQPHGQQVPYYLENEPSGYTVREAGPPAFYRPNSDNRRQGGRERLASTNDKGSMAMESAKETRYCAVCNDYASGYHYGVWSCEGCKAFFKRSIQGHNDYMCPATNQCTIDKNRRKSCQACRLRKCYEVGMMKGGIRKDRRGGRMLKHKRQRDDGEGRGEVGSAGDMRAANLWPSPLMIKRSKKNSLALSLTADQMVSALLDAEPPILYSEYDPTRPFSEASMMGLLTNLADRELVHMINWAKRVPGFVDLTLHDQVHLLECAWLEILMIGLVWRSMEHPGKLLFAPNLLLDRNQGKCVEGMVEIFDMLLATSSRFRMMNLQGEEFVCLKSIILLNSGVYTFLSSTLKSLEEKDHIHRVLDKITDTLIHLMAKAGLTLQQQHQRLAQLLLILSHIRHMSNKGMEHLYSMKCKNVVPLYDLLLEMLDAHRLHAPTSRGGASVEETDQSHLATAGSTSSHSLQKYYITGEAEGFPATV
As to the kind of experiment: Yeast assay, yeast estrogen response (YER), β-gal reporter. The experiment is classed as cell-based. Particulars: for estrogenicity: summary statement, no concentration given. The method, then:
Saccharomyces cerevisiae ER+[…], supplied by Dr. Donald P. […] The cultured yeasts were diluted in a medium to a proper concentration and 500 μM of CuSO4 (Sigma, USA) was added thereto. The diluted yeasts were then aliquoted into a 50 Ml tube at a proper level. […] Control group was treated with dimethyl sulfoxide (Sigma, USA). […] The experimental groups and control groups treated with the respective materials were then cultured for 18 hours in a shaking incubator (200 rpm). […] To each well, 100 μl of a Z buffer containing 2 mg/Ml o-nitrophenyl -β-D-galactopyranoside (Sigma, USA), 0.1% lauryl sulfate (Sigma, USA), 50 mM β-mercaptoethanol (BDH chemical LTD, England) and 200 U/Ml oxalyticase (Enzogenetics, USA) was added. After 20 minutes, the coloration was examined using a microplate reader at a wavelength of 420 nm. All the data were analyzed by ANOVA using the statistical program SAS and Dunnett's t-test was performed at significance level P<0.05.

The target of the next experiment is T2, androgen receptor (hAR) (Homo sapiens, UniProt P10275).
T2 construct: expressed in transfected cells; host or cells: recombinant Saccharomyces cerevisiae (from Dr. Donald P. McDonnell, Duke University)
T2 sequence (P10275 1-920): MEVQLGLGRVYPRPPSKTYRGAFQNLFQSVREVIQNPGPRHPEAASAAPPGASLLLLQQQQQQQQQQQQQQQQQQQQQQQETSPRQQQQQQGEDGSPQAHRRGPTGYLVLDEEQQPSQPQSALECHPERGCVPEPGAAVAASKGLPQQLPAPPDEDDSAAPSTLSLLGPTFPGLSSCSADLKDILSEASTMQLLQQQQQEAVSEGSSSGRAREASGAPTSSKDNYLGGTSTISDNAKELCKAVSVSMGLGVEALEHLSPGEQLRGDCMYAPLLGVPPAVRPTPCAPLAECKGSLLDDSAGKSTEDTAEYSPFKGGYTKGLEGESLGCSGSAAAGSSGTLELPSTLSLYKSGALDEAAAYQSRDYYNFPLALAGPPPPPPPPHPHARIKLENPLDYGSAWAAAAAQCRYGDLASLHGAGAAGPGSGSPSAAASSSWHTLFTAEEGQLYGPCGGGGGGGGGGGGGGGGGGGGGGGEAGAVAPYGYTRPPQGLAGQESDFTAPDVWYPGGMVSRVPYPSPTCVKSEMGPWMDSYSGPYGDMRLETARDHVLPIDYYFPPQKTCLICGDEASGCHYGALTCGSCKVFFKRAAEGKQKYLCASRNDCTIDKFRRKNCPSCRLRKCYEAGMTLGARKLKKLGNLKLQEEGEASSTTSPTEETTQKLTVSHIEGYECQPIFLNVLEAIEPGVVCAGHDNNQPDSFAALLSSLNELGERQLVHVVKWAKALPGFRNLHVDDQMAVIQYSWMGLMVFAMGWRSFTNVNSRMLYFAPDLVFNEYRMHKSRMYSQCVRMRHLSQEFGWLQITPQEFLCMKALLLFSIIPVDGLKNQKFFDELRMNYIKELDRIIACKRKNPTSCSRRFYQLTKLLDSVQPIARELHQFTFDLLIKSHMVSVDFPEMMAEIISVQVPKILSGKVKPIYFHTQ
As to the kind of experiment: Yeast assay, yeast androgen response (YAR), β-gal reporter. Type of experiment: cell-based. The following applies: summary statement, no concentration given.

This note sets out measurements from patent US20070134353A1, “PHYTOESTROGENIC COMPOSITION COMPRISING AN EXTRACT OF CHINESE LICORICE ROOT, ISOLIQUIRITIN OR LIQUIRITIN” (priority 2004, published 2007).

Entries after “also recorded” stand apart in the source; their conditions may differ.

In the case of `CC(C)(c1ccc(O)cc1)c1ccc(O)cc1` [BPA, bisphenol-A], in experiment [1] (FIG. 14), the “thickness of uterine epithelial cells” value is on record as “increased”. Further, the “thickness of vagina epithelial cells” value in experiment [1] (FIG. 15) is “increased”. The “effect on proliferation of MCF-7 cells” value in experiment [2] (16 μg/ml, pretest) is reported as “showed the highest effect on proliferation”.

Turning to `O=C(/C=C/c1ccc(O[C@@H]2O[C@H](CO)[C@@H](O)[C@H](O)[C@H]2O)cc1)c1ccc(O)cc1O` [isoliquiritin, Isoliquiritin], the “suppression of the activity of bisphenol-A” value in experiment [3] was “suppress the activity of bisphenol-A”. Further, the “estrogenicity (estrogen response, ER)” value in experiment [4] (10 μg/ml and 100 μg/ml, compared with positive control 10^−9 M estradiol, FIG. 2b) is “higher than that of the positive control estradiol”. The estrogenicity entry in experiment [4] is recorded as “show estrogenicity”. Besides, the “concentration showing the highest estrogenicity” value in experiment [4] (tested at 10 μg/ml and 100 μg/ml, FIG. 2b) is 10 µg/mL. Also, on androgen receptor (hAR), the androgenicity result was “do not show androgenicity”. In experiment [2], the “inhibition of proliferation of MCF-7 breast cancer cell line” value is on record as “inhibited proliferation; also recorded: no significant proliferation of breast cancer cells was observed” and the “inhibition of proliferation of cancer cells including breast cancer cells” value is on record as “inhibit proliferation of cancer cells”. Further, the “inhibitory effect on proliferation of breast cancer cells (MCF-7)” value in experiment [2] (300 μg/ml, FIG. 5) is “excellent inhibitory effect”.

For Liquiritin, the “suppression of the activity of bisphenol-A” value in experiment [3] was “suppress the activity of bisphenol-A”. For the same compound, the estrogenicity result in experiment [4] is on record as “show estrogenicity”. Also, the androgenicity entry at androgen receptor (hAR) is reported as “do not show androgenicity”. In experiment [2], the “inhibition of proliferation of MCF-7 breast cancer cell line” value was “inhibited proliferation” and the “inhibition of proliferation of cancer cells including breast cancer cells” value is “inhibit proliferation of cancer cells”.
